target: MLK-3 (Homo sapiens, UniProt Q16584); test: Biochemical assay for the inhibition of kinase activity for MLK-3 (33P-ATP, HOTSPOT filter binding); conditions: activated MLK-3 20 nM, ATP 50 μM, myelin basic protein 20 μM, 20 minutes room temperature
Protocol: Biochemical Assay for the Inhibition of Kinase Activity for MLK-3: Myelin basic protein (20 μM final concentration) is dissolved in 20 mM Hepes (pH 7.5) containing […], […], 0.02% Brij35, 0.02 mg/ml BSA, 0.1 μM Na3VO4, 2 mM DTT, and 1% DMSO. Activated MLK-3 is added and mixed (20 nM final concentration), and inhibitors are added in DMSO. ^33P-ATP (specific activity 500 μCi/μL) is delivered into the reaction mixture to initiate the reaction (ATP concentration is 50 μM) and the mixture is incubated at room temperature for 20 minutes. % Activity is determined using a proprietary HOTSPOT™ microfluidic filter binding technology. See, Expert Opin. Drug Discov. 2008 June; 3(6): 607-621.

Chain of MLK-3 (Q16584 whole entry): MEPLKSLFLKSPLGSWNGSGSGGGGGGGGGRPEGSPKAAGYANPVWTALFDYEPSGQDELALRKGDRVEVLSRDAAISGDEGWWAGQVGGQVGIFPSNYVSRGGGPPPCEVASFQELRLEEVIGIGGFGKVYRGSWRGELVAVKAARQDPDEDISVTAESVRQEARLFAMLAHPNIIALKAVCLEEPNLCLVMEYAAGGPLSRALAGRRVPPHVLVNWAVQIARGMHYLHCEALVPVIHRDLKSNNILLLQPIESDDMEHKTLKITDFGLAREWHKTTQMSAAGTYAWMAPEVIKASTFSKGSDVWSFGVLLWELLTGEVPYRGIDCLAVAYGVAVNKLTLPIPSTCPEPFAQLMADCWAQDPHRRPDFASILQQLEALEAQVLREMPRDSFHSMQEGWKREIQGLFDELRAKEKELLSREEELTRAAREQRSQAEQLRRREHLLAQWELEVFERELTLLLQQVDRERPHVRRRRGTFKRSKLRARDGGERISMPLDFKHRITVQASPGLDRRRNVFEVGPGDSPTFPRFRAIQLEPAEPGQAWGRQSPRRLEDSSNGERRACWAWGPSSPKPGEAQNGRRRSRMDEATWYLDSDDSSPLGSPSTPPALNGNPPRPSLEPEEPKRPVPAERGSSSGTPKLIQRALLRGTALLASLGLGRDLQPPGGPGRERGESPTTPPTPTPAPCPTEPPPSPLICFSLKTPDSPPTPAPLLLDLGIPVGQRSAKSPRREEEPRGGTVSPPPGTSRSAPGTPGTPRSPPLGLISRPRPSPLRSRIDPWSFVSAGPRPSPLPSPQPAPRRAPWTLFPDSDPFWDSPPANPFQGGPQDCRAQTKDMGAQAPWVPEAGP

Compared with O[C@H]1CCC[C@@H](Nc2ccc3ncc(-c4cc5ccccc5s4)n3n2)C1 (relative stereo) [Compound 122, cis-3-(3-(benzo[b]thiophen-2-yl)imidazo[1,2-b]pyridazin-6-ylamino)cyclohexanol], COc1cc2cc(-c3cnc4ccc(NC5CCC[C@H](O)C5)nn34)sc2cc1OC (stereo in doubt) [Compound 174, 3-(3-(5,6-dimethoxybenzo[b]thiophen-2-yl)imidazo[1,2-b]pyridazin-6-ylamino)cyclohexanol] is lower in IC50: 0.1 to 0.5 µM for the first, less than 0.1 µM for the second. The second is the more potent here.

COc1ccc2[nH]c(-c3cnc4ccc(Nc5ccc(OC)c(OC)c5)nn34)cc2c1 [Compound 3, 3-(5-methoxy-1H-indol-2-yl)-N-(3,4-dimethoxyphenyl)imidazo[1,2-b]pyridazin-6-amine] and COc1ccc2cc(-c3cnc4ccc(Nc5ccc(OC)c(OC)c5)nn34)[nH]c2c1 [Compound 4, 3-(6-methoxy-1H-indol-2-yl)-N-(3,4-dimethoxyphenyl)imidazo[1,2-b]pyridazin-6-amine] fall in the same range of IC50: 0.1 to 0.5 µM for the first, 0.1 to 0.5 µM for the second.

COc1ccc(Nc2ccc3ncc(-c4cc5cccc(OC)c5[nH]4)n3n2)cc1OC [Compound 5, 3-(7-methoxy-1H-indol-2-yl)-N-(3,4-dimethoxyphenyl)imidazo[1,2-b]pyridazin-6-amine] and COc1ccc(Nc2ccc3ncc(-c4cccc(O)c4)n3n2)cc1OC [Compound 9, 3-(6-(3,4-dimethoxyphenylamino)imidazo[1,2-b]pyridazin-3-yl)phenol] cannot be ordered by IC50: less than 0.1 µM for the first, less than 5 µM for the second.

COc1ccc(Nc2ccc3ncc(-c4cc(OC)c(OC)c(OC)c4)n3n2)cc1OC [Compound 11, 3-(3,4,5-trimethoxyphenyl)-N-(3,4-dimethoxyphenyl)imidazo[1,2-b]pyridazin-6-amine] and COc1cc(Nc2ccc3ncc(-c4cc5ccccc5s4)n3n2)cc(OC)c1OC [Compound 14, 3-(benzo[b]thiophen-2-yl)-N-(3,4,5-trimethoxyphenyl)imidazo[1,2-b]pyridazin-6-amine] cannot be ordered by IC50: less than 5 µM for the first, 0.5 to 1 µM for the second.

CN1CCN(c2cccc(Nc3ccc4ncc(-c5cc6ccccc6s5)n4n3)c2)CC1 [Compound 13, 3-(benzo[b]thiophen-2-yl)-N-(3-(4-methylpiperazin-1-yl)phenyl)imidazo[1,2-b]pyridazin-6-amine] and O=C(O)c1cccc(Nc2ccc3ncc(-c4cc5ccccc5s4)n3n2)c1 [Compound 26, 3-(3-(benzo[b]thiophen-2-yl)imidazo[1,2-b]pyridazin-6-ylamino)benzoic acid] cannot be ordered by IC50: less than 5 µM for the first, 0.1 to 0.5 µM for the second.

COc1cc(Nc2ccc3ncc(-c4cc5ccccc5s4)n3n2)ccc1O [Compound 24, 4-(3-(benzo[b]thiophen-2-yl)imidazo[1,2-b]pyridazin-6-ylamino)-2-methoxyphenol] and COc1ccc(Nc2ccc3ncc(-c4cc5ccccc5s4)n3n2)cc1O [Compound 31, 5-(3-(benzo[b]thiophen-2-yl)imidazo[1,2-b]pyridazin-6-ylamino)-2-methoxyphenol] cannot be ordered by IC50: 0.1 to 0.5 µM for the first, less than 5 µM for the second.

First: O=C(O)c1ccc(Nc2ccc3ncc(-c4cc5ccccc5s4)n3n2)cc1 [Compound 25, 4-(3-(benzo[b]thiophen-2-yl)imidazo[1,2-b]pyridazin-6-ylamino)benzoic acid]
Second: COc1cc(Nc2ccc3ncc(-c4cc5ccccc5s4)n3n2)ccc1OCCCO [Compound 27, 3-(4-(3-(benzo[b]thiophen-2-yl)imidazo[1,2-b]pyridazin-6-ylamino)-2-methoxyphenoxy)propan-1-ol]
The IC50 of the first is higher: 0.5 to 1 µM for the first, 0.1 to 0.5 µM for the second. The second is the more potent here.

COc1cc(Nc2ccc3ncc(-c4cc5ccccc5s4)n3n2)ccc1OCC1CC1 [Compound 28, 3-(benzo[b]thiophen-2-yl)-N-(4-(cyclopropylmethoxy)-3-methoxyphenyl)imidazo[1,2-b]pyridazin-6-amine] and COc1cc(Nc2ccc3ncc(-c4cc5ccccc5s4)n3n2)ccc1OC(C)C [Compound 30, 3-(benzo[b]thiophen-2-yl)-N-(4-isopropoxy-3-methoxyphenyl)imidazo[1,2-b]pyridazin-6-amine] cannot be ordered by IC50: less than 5 µM for the first, less than 5 µM for the second.

Reference: patent US9370515B2, “Mixed lineage kinase inhibitors and method of treatments” (CALIFIA BIO, INC., priority 2013, dated 2016)
